Source: patent publication US7626021B2, “Fused ring heterocycle kinase modulators” (SGX Pharmaceuticals, Inc., priority 2004, dated 2009)

Test system: Ba/F3 cells transfected with T315I BCR-ABL
Experiment: BCR-ABL phospho-ELISA in T315I cells or Ba/F3 T315I proliferation (XTT)
Format: cell-based
Conditions: Mus musculus, BaF3, phospho-ELISA or 72 h XTT proliferation, read-out: P_ELISA_[T3151l_Cells] or Ba/F3 T315l proliferation (XTT)
Description: MV4-11 and THP cells were maintained in Iscove's Modified Dulbecco's Medium supplemented with 10% fetal bovine serum (FBS) and penicillin/streptomycin, Ba/F3 cells were maintained in RPMI 1640 supplemented with 10% FBS, penicillin/streptomycin and 5 ng/ml recombinant mouse IL-3.
Compounds were tested in the following assays in duplicate.
96-well XTT assay: Cells were grown in growth media containing various concentrations of compounds (duplicates) on a 96-well plate for 72 hours at 37° C. The starting cell number was 5000-8000 cells per well and volume was 120 μl. At the end of the 72-hour incubation, 40 μl of XTT labeling mixture (50:1 solution of sodium 3′-[1-(phenylamino-carbonyl)-3,4-tetrazolium]-bis(4-methoxy-6-nitro) benzene sulfonic acid hydrate and Electron-coupling reagent: PMS (N-methyl dibenzopyrazine methyl sulfate) were added to each well of the plate. After an additional 2-6 hours of incubation at 37° C., the absorbance reading at 405 nm with background correction at 650 nm was measured with a spectrophotometer.
BCR-ABL Phospho-ELISA Assay
Cells (Ba/F3 cells transfected with WT BCR-ABL, other kinases, or T315I, Y253F, or other mutant forms of BCR-ABL) were grown in the absence of IL-3 at least ½ week before the assay. The day before assay, the cells were fed with fresh media so that at the time of assay the cells were in log phase. Ba/F3 cells that had been grown in the absence of IL-3 for at least ½ week were resuspended in RPMI 1640 so that each well of a 96-well plate would contain approximately 200,000 cells. Cells were distributed in a 96-well plate containing serially diluted concentrations of test compounds. Cells were typically incubated with or without test compounds for 60-120 minutes at 5% CO2, 37° C. The incubation was performed with or without other additives such as 10% FCS or 50% human plasma. After incubation of compounds, lysis buffer was added and incubated for 10-15 minutes; the lysate was cleared by centrifugation.
To make the ELISA plate, commercially available Anti-ABL antibodies (e.g. (Ab-3, Calbiochem OP20) were prepared at a concentration of 0.125 μg/ml in coating buffer (0.1M Na-carbonate, pH 9.5), and plated at 10 ml per plate ([…] 100 μg/ml Ab/10 ml). In a high binding multi-well plate, 100 μl Ab in coating buffer were added to each well, and each plate was covered with a plate seal and incubated overnight at 4° C.
Excess antibody was removed and the ELISA plate was washed 3-4 times with 200 μl of wash buffer (0.05% Tween in PBS, pH 7.4). 150 μl of lysate (see above) were transferred to the ELISA plate. Plates were sealed and incubated 2 hours at room temperature. The detection antibody (e.g. HRP conjugated anti-pTyr or unconjugated α-p-Y 4G10, Upstate) was prepared in assay diluent. The antibody was diluted 1:1000 (stock=2 μg/μl, 200 μg in 100 μl; f.c.=2 μg/ml) in assay diluent and 10 ml of diluted antibody per plate were added. The lysate was removed from the ELISA plates, and wells were washed four times with 200 μl of wash buffer per well. 100 μl of detection antibody was added to each well; the plate was covered, and incubated 1 hr at room temperature (21° C.). Excess detection antibody was removed from the ELISA plates, and the wells were washed four times with 200 μl of wash buffer per well.
If necessary, (i.e. for unconjugated anti-pTyr antibody) secondary antibody (goat anti-rabbit HRP) was diluted 1:3000 in assay diluent (3.33 μl per 10 ml diluent) and added at 10 ml of diluted antibody per plate. Excess secondary antibody was removed from the ELISA plate, and the plate was washed four times with 200 μl per well of wash buffer.
Substrate Reagent A and Substrate Reagent B (Pierce Cat#37070 SuperSignal ELISA Pico Chemiluminescent Substrate) were added immediately before use (10 ml resultant solution per plate). 100 μl substrate were added per well, mixed for 1 minute, and chemiluminescent signal was measured with a luminometer.

SMILES	IC50 [nM]
COc1ccccc1-c1n[nH]c2ncc(Br)cc12	1000 to 10000
c1ccc(-c2n[nH]c3ncc(-c4ccc5[nH]ccc5c4)cc23)cc1	1000 to 10000
c1ccc(-c2n[nH]c3ncc(-c4cccnc4)cc23)cc1	> 10000
COc1ccccc1-c1n[nH]c2ncc(-c3cccnc3)cc12	1000 to 10000
CCOc1ccccc1-c1n[nH]c2ncc(-c3cccc(C(=O)N4CCOCC4)c3)cc12	1000 to 10000
COc1ncc(-c2n[nH]c3ncc(-c4cccc(C(=O)N5CCOCC5)c4)cc23)c(OC)n1	1000 to 10000
COc1ccccc1-c1cnc2[nH]nc(-c3ccccc3OC)c2c1	1000 to 10000
COc1ccccc1-c1n[nH]c2ncc(-c3cccc(C(=O)NC(C)C)c3)cc12	1000 to 10000
O=C(c1cccc(-c2cnc3[nH]nc(-c4ccc5cc[nH]c5c4)c3c2)c1)N1CCOCC1	1000 to 10000
Cc1cc(F)ccc1-c1n[nH]c2ncc(-c3cccc(C(=O)N4CCOCC4)c3)cc12	1000 to 10000
Cn1ccc2cc(-c3n[nH]c4ncc(-c5cccc(C(=O)N6CCOCC6)c5)cc34)ccc21	1000 to 10000
O=C(c1cccc(-c2cnc3[nH]nc(-c4ccncc4Cl)c3c2)c1)N1CCOCC1	1000 to 10000
COc1ccccc1-c1n[nH]c2ncc(-c3ccc(C(=O)N4CCCC4)cc3)cc12	1000 to 10000
COc1ccccc1-c1n[nH]c2ncc(-c3cnc4[nH]n(C)c(=O)c4c3)cc12	1000 to 10000
COc1cc(-c2cnc3[nH]nc(-c4ccccc4)c3c2)ccc1O	1000 to 10000
COc1ccccc1-c1n[nH]c2ncc(-c3ccc(C(=O)N4CCOCC4)cc3)cc12	1000 to 10000
COc1ccccc1-c1c[nH]c2ncc(-c3cccc(C(=O)N(C)C)c3)nc12	> 10000

More lines, now with the values ahead:

IC50 [nM]	SMILES
< 1000	Oc1cccc(-c2cnc3[nH]nc(-c4ccccc4)c3c2)c1
< 1000	COc1ccccc1-c1n[nH]c2ncc(-c3cccc(C(=O)N(C)C)c3)cc12
< 1000	COc1ccccc1-c1n[nH]c2ncc(-c3ccc(O)c(C(=O)N4CCOCC4)c3)cc12
< 1000	COc1ccccc1-c1n[nH]c2ncc(-c3cccc(C(=O)N4CCN(C)CC4)c3)cc12
< 1000	CCc1ccccc1-c1n[nH]c2ncc(-c3cccc(C(=O)N4CCOCC4)c3)cc12
< 1000	COc1c(F)cccc1-c1n[nH]c2ncc(-c3cccc(C(=O)N4CCOCC4)c3)cc12
< 1000	Cc1ccsc1-c1n[nH]c2ncc(-c3cccc(C(=O)N4CCOCC4)c3)cc12
< 1000	COc1ccccc1-c1n[nH]c2ncc(-c3cccc(C(=O)N4CCC(CO)CC4)c3)cc12
< 1000	O=C(c1cccc(-c2cnc3[nH]nc(-c4cccc5cccnc45)c3c2)c1)N1CCOCC1
< 1000	COc1ccccc1-c1n[nH]c2ncc(-c3cccc(C(=O)N4CCCC4)c3)cc12
< 1000	COc1ccccc1-c1n[nH]c2ncc(-c3ccc(C(=O)NC4CC4)cc3)cc12
< 1000	COc1ccccc1-c1n[nH]c2ncc(-c3cccc(S(=O)(=O)NC4CC4)c3)cc12
< 1000	COc1ccccc1-c1n[nH]c2ncc(-c3cccc(C(=O)N4CCN(CCN(C)C)CC4)c3)cc12
< 1000	CCN1CCN(C(=O)c2cccc(-c3cnc4[nH]nc(-c5cc(F)ccc5OC)c4c3)c2)CC1
< 1000	COc1cc(-c2cnc3[nH]cc(-c4ccc(C)cc4)c3n2)ccc1O
< 1000	COc1ccccc1-c1n[nH]c2ncc(-c3ccc(C(=O)N4CCN(C)CC4)cc3)cc12
